Where a name gives a salt, the structure may show the parent alone.
Key:
Format in all cases: in vivo, Balb/c mice
[1] = tested on: CD11b+ monocytes in colon tissue of DSS-induced colitis mice; test: Inflammatory cell detection in colon cryosections by fluorescence confocal microscopy; conditions: middle segment of colon, 10 mg/kg intragastric, FIG. 4
Experimental: FIG. 4 is photographs showing the photographing and analyzing results under fluorescence confocal microscopy in which, after the middle segments of colons of mice in various groups were cryosectioned, the nucleus were stained with DAPI fluorescent antibody, and the mononuclear lymphocytes were stained with anti-CD11b antibody.
(§1) 1. Mice were randomly divided into a normal control group, a model group, a cyclosporin A (CsA) (20 mg/kg) treatment group, a 5-aminosalicylic acid (5-ASA) (50 mg/kg) treatment group, and the artemisinin derivative having anti-inflammatory immunosuppressive activity SM934, SM905, SM933 and SM735 (10 mg/kg each) treatment groups, with 8 mice per group. Except for the mice in the normal control group, for the mice in the other groups including the model group, the cyclosporine A treatment group, the 5-aminosalicylic acid treatment group, and the 4 artemisinin derivative treatment groups, 5% DSS was added to the drinking water for 7 consecutive days for induction of the intestinal inflammation model.
2. […]
2. The middle segment of the colon was cryosectioned, stained with the corresponding fluorescent antibody, photographed under a fluorescence confocal microscope and analyzed.

[2] = tested on: macrophages and neutrophils in mesenteric lymph nodes and spleen of DSS-induced colitis mice; test: Inflammatory cell detection by flow cytometry in mesenteric lymph nodes and spleen; conditions: 10 mg/kg intragastric, FIG. 3A and 3B
Experimental: FIG. 3 is graphs showing the results of flow cytometry analysis, in which a single cell suspension was prepared from mesenteric lymph nodes and spleen of mice in various groups taken out at the end of the experiment, and the cells were labeled with the corresponding fluorescent antibody. FIG. 3A is for the isolated mesenteric lymph node cells, and FIG. 3B is for the isolated spleen lymphocytes, they were stained withanti-F4/80 antibody+anti-CD11b antibody (double positive cells were recognized as macrophages), and with anti-Gr-1 antibody+anti-CD11 b antibody (double positive cells were identified as neutrophils) respectively.
as §1
2. […]

[3] = tested on: pro-inflammatory cytokines in colon tissue of DSS-induced colitis mice; test: Detection of pro-inflammatory cytokine levels in colon tissue by ELISA; conditions: colon homogenate, per unit of total protein, 10 mg/kg intragastric, FIG. 5
Experimental: as §1
2. From the start of the induction to the end of the experiment, mice in the various treatment groups were given cyclosporine A, 5-aminosalicylic acid 5-ASA or4 artemisinin derivatives (10 mg/kg) respectively by intragastric administration to conduct a therapeutic intervention.
[IV] Detection of Pro-Inflammatory Cytokine Levels in Colon Tissue
1. […] After centrifugation, the protein concentration in the homogenate supernatant was quantified with a BCA kit.
2. ELISA was used to detect the content of pro-inflammatory cytokine in the supernatant, which was expressed as the content of cytokine per unit of total protein.

C[C@@H]1CCC2[C@@H](C)[C@@H](OCCN)O[C@H]3O[C@@]4(C)CCC1[C@@]23OO4 (stereo partly drawn) [SM934, β-aminoarteether maleate]
reduced: infiltration of monocytes (CD11b+ cells) in colon tissue [1] | proportion of macrophages (F4/80+ and CD11b+ double positive cells) [2] | proportion of neutrophils (Gr-1+ and CD11b+ double positive cells) [2] | levels of pro-inflammatory cytokines in colon tissue [3]

Source: patent publication US20200030284A1, “MEDICAL USE OF ARTEMISININ DERIVATIVE FOR TREATING INFLAMMATORY BOWEL DISEASE” (SHANGHAI INSTITUTE OF MATERIA MEDICA,CHINESE ACADEMY OF …, priority 2017, published 2020)
